This is an account of results in US20080146641A1, “ANTIBACTERIAL COMPOSITION” (priority 2001, published 2008).

In brackets after ≈: the same amount, converted by molar mass. Like-named read-outs stand apart in the source and are kept apart here.

The subject of series [1] is Escherichia coli IFO 3301. Nature of the series: Minimum inhibitory concentration, agar plate for measuring susceptibility. It is filed as cell-based. The conditions noted are these: for MIC: Escherichia coli, IFO3301, read-out: Minimum Inhibitory Concentration CaO, Escherichia coli IFO 3301 (Gram-negative bacteria).
Series [2] has as its system Staphylococcus aureus IFO 12732. Described as above. In kind it is cell-based. The note with it: for MIC: Staphylococcus aureus, IFO12732, read-out: Minimum Inhibitory Concentration CaO, Staphylococcus aureus IFO 12732 (Gram-positive bacteria).
Series [3] in a line: Antibacterial effect, test not described.
The subject of series [4] is Salmonella entriditis IFO 3313. Nature of the series: Antibacterial spectrum, MIC on Muller Hinton Agar. In kind it is cell-based, Salmonella enteritidis. The conditions noted are these: Comparison 1 is a reference value (suspension at not less than 1400 μg).
Series [5] relates to Pseudomonas aeruginosa IFO 13275. Nature of the series: Antibacterial spectrum, MIC on Muller Hinton Agar. It is filed as cell-based. The conditions noted are these: Comparison 1 is a reference value (suspension at not less than 1400 μg).
The subject of series [6] is Enterococcus faecalis IFO 129B4. Nature of the series: Antibacterial spectrum, MIC on Muller Hinton Agar. In kind it is cell-based. The conditions noted are these: Comparison 1 is a reference value (suspension at not less than 1400 μg).
The subject of series [7] is Bacillus cereus IFO 13494. Nature of the series: Antibacterial spectrum, MIC on Muller Hinton Agar. In kind it is cell-based. The note with it: Comparison 1 is a reference value (suspension at not less than 1400 μg).
For series [8], the system named is Lactobacillus plantarum (lactic acid bacterium) IFO 3070. Nature of the series: Antibacterial spectrum, MIC on Brain Heart Infusion Agar. It is filed as cell-based. The note with it: Comparison 1 is a reference value.
Series [9] concerns Clostridium perfingens NCTC 8283. It is filed as cell-based, Clostridium perfringens. The note with it: Comparison 1 is a reference value (suspension at not less than 1400 μg).
Series [10] has as its system Saccharomyces cerevisiae IFO 1950. Nature of the series: Antibacterial spectrum, MIC on Sabouraud Glucose agar medium. The conditions noted are these: Comparison 1 is a reference value. In kind it is cell-based. The procedure: […] Additionally, as to the other α-amino acids used as the raw materials, flat plates for measuring susceptibility each of which contains a 500 to 20,000 μg/ml α-amino acid were prepared. […] The bacterial liquid for inoculation was drawn In lines and painted 1 to 2 cm on each flat plate for measuring susceptibility with a plastic loop, and incubated at 35° C. 1° C. for 18 to 20 hours. The lowest concentrations in which the painted parts were blocked to grow were defined as the minimum bacteriostasis concentrations of the antibacterial compositions, and the calcium oxide, the calcium hydroxide, and the α-amino acids used as the raw materials in the embodiments 1 through 16.
The minimum inhibitory concentrations to these typical kinds of bacteria were measured, however, the antibacterial compositions of the present invention are not to be restricted to the kinds of bacteria shown in the embodiments. Although the measuring method was similar to that of the embodiment 17, as the culture media for measuring susceptibility, Muller Hinton Agar (Difco) was used for enterococcus, cereus, salmonella, and pseudomonas aeruginosa; Brain Heart Infusion Agar (Difco) was used for lactobacillus; GAM agar medium (Nissui Pharmaceutical Co., Ltd.) was used for welsh; and Sabouraud Glucoss agar medium (Eiken Chemical Co., Ltd.) was used for saccharomyces.

For series [11] the following is noted: cited from earlier work.
Setting [12] is: Table 2, raw materials, amino acid plates held 500 to 20,000 μg/ml α-amino acid.

As to `N[C@@H](Cc1c[nH]cn1)C(=O)O` [Comparison 14, hystidine], the “Minimum Inhibitory Concentration CaO; Escherichia coli IFO 3301 (Gram-negative bacteria)” value in series [1] (setting [12]) is over 20000 µg/mL. In series [2] (setting [12]), the “Minimum Inhibitory Concentration CaO; Staphylococcus aureus IFO 12732 (Gram-positive bacteria)” value is over 20000 µg/mL.
Consider `NCC(=O)O` [Comparison 3, glycine], for which the MIC in [1] (setting [12]) and in series [2] (setting [12]) was over 10000 µg/mL throughout.
For `C[C@@H](O)[C@H](N)C(=O)O` [Comparison 8, threonine], the MIC in series [1] (setting [12]) and in [2] (setting [12]) was over 20000 µg/mL each time.
Turning to `N[C@@H](CC(=O)[O-])C(=O)[O-].[Ca+2]` [aspartate calcium], the “antibacterial effect / antibacterial property” value in [3] is recorded as “did not have antibacterial property”.
Turning to `NC(=O)C[C@H](N)C(=O)O` [Comparison 11, asparagine], the MIC in [1] (setting [12]) and in [2] (setting [12]) was over 20000 µg/mL in each case.
Regarding `N[C@@H](CCC(=O)[O-])C(=O)[O-].[Ca+2]` [calcium glutamate], in series [3], the “antibacterial effect / antibacterial property” value is given as “did not have antibacterial property”.
For `CC(C)C[C@H](N)C(=O)O` [Comparison 6, leucine], the MIC in series [1] (setting [12]) and in [2] (setting [12]) was over 10000 µg/mL each time.
In the case of `[O]=[Ca]` [Comparison 1, calcium oxide], the “Minimum Inhibitory Concentration CaO; Escherichia coli IFO 3301 (Gram-negative bacteria)” value in [1] (setting [12]) is 1250 µg/mL. For the same compound, in [2] (setting [12]), the “Minimum Inhibitory Concentration CaO; Staphylococcus aureus IFO 12732 (Gram-positive bacteria)” value is 1000 µg/mL. The “Minimum Inhibitory Concentration CaO, Salmonella enteritidis” value in series [4] worked out at 2500 µg/mL. Besides, the “Minimum Inhibitory Concentration CaO, Pseudomonas aeruginosa” value in [5] came to 2500 µg/mL. The “Minimum Inhibitory Concentration CaO, Enterococcus faecalis” value in series [6] worked out at 5000 µg/mL. Besides, in series [7], the “Minimum Inhibitory Concentration CaO, Bacilluscereus” value came out at 2500 µg/mL. Also, the “Minimum Inhibitory Concentration CaO, Lactobachillus faecalis” value in series [8] was determined as 313 µg/mL. Also, in series [9], the “Minimum Inhibitory Concentration CaO, Clostridium perfringens” value was 5000 µg/mL. Further, in [10], the “Minimum Inhibitory Concentration CaO, Saccgaromyces cervisiae” value was found to be 625 µg/mL. The dissolves in water in [11] (20° C.) is 0.14 wt %. In addition, the water-solubility in series [11] (at 20° C.) is 1400 μg/gH2O.
Consider `NC(=O)CC[C@H](N)C(=O)O` [Comparison 12, glutamine], for which the MIC in [1] (setting [12]) and in series [2] (setting [12]) was over 20000 µg/mL throughout.
For `C[C@H](N)C(=O)O` [Comparison 4, alanine], the MIC in series [1] (setting [12]) and in series [2] (setting [12]) was over 10000 µg/mL throughout.
With `N[C@@H](CSSC[C@H](N)C(=O)O)C(=O)O` [Comparison 9, cystine], the MIC in series [1] (setting [12]) is over 20000 µg/mL; in series [2] (setting [12]), 20000 µg/mL (≈ 83.2 mM).
As to `CC(C)[C@H](N)C(=O)O` [Comparison 5, valine], the MIC in series [1] (setting [12]) and in series [2] (setting [12]) was over 10000 µg/mL throughout.
With `[Ca+2].[OH-].[OH-]` [Comparison 2, calcium hydroxide], the “Minimum Inhibitory Concentration CaO; Escherichia coli IFO 3301 (Gram-negative bacteria)” value in series [1] came to 900 µg/mL. The “Minimum Inhibitory Concentration CaO; Staphylococcus aureus IFO 12732 (Gram-positive bacteria)” value in series [2] came out at 850 µg/mL.
Consider `CC[C@H](C)[C@H](N)C(=O)O` [Comparison 7, isoleucine], for which the MIC in series [1] (setting [12]) and in series [2] (setting [12]) was over 10000 µg/mL throughout.
Take `CSCC[C@H](N)C(=O)O` [Comparison 10, Methionine]: the MIC in [1] (setting [12]) and in series [2] (setting [12]) was over 10000 µg/mL each time.
